Measurements taken from patent publication US20040213743A1, “Sensorially active substances embedded in plastic” (priority 1996, published 2004).
Where two headings read alike, the source gives them in different places.

Tests used:
rats = rats gnawing on denatonium benzoate-treated flexible PVC; format: in vivo
[1] = cited from earlier work
[2] = solubility in plastic and solvents; format: physicochemical; details: molten flexible PVC
[3] = cited from earlier work; remark: listed apart in the source
[4] = approximately 0.2 grams of denatonium benzoate in 100 grams of clear flexible PVC

CC[N+](CC)(CC(=O)Nc1c(C)cccc1C)Cc1ccccc1 [denatonium benzoate]
deterrence of gnawing on the PVC (rats; [4]): does not deter rats from gnawing and eating the PVC | effect on rats which ingest the treated PVC (rats; [4]): pronounced soporific effect | deterrence of gnawing on the PVC (rats; approximately 2.5 grams of denatonium benzoate in 100 grams of clear flexible PVC, also when sample thoroughly washed): quite effective in discouraging rats from gnawing on the plastic | skin irritation ([1]; at concentrations of 0.05%): does not irritate the skin | skin irritation ([1]; even in fairly high concentrations): non-irritating to the skin | solubility in polyvinyl chloride (PVC) [2]: readily dissolves | solubility in polyvinyl chloride (PVC) ([2]; listed as Bitrex™): soluble in PVC | solubility in organic solvents ([3]; benzene and chloroform): readily soluble | solubility in ether ([3]; ether): nearly insoluble
